Measurements from the supplement of paper PMC10307832.

Legend:
Assay in all cases: relative viability (nuclei count vs DMSO), 5 days (fraction); higher = more cells survive
Bortezomib + Phenformin = compound: CC(C)C[C@H](NC(=O)[C@H](Cc1ccccc1)NC(=O)c1cnccn1)B(O)O [Bortezomib] + N=C(N)NC(=N)NCCc1ccccc1 [Phenformin] (partner 250 µM)
Procedure, shortened: (§1)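 After 5 days of treatment, lung cancer cells in 1536-well plates were fixed and stained in a single step (final 0.05% Triton X-100, 1% formaldehyde, 1 ug/ml Hoechst) and their nuclei counted on 4× images. Treatment had been applied by pin tool the day after seeding as one drug alone or as a fixed anchor-drug dose with five library-drug doses (not always all listed) in √10 steps. Relative viability is the nuclei count of treated wells divided by that of vehicle wells, and values are medians of duplicate plates.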

Bortezomib + Crizotinib = compound: CC(C)C[C@H](NC(=O)[C@H](Cc1ccccc1)NC(=O)c1cnccn1)B(O)O [Bortezomib] + C[C@@H](Oc1cc(-c2cnn(C3CCNCC3)c2)cnc1N)c1c(Cl)ccc(F)c1Cl [Crizotinib] (partner 1 µM)
Procedure, shortened: as §1

Bortezomib + Pemetrexed = compound: CC(C)C[C@H](NC(=O)[C@H](Cc1ccccc1)NC(=O)c1cnccn1)B(O)O [Bortezomib] + Nc1nc2[nH]cc(CCc3ccc(C(=O)N[C@@H](CCC(=O)O)C(=O)O)cc3)c2c(=O)[nH]1 [Pemetrexed] (partner 0.2 µM)
Procedure, shortened: as §1

Obatoclax + Palbociclib = compound: COC1=CC(c2cc3ccccc3[nH]2)=N/C1=C\c1[nH]c(C)cc1C [Obatoclax] + CC(=O)c1c(C)c2cnc(Nc3ccc(N4CCNCC4)cn3)nc2n(C2CCCC2)c1=O [Palbociclib] (partner 0.5 µM)
Procedure, shortened: as §1

Cell Line: NCI-H650
- relative viability (Bortezomib + Phenformin; first compound 0.000632 µM): 0.431
- relative viability (Bortezomib + Phenformin; first compound 0.002 µM): 0.461
- relative viability (Bortezomib + Phenformin; first compound 0.006325 µM): 0.38
- relative viability (Bortezomib + Phenformin; first compound 0.02 µM): 0.203
- relative viability (Bortezomib + Crizotinib; first compound 0.000632 µM): 0.753
- relative viability (Bortezomib + Crizotinib; first compound 0.002 µM): 0.584
- relative viability (Bortezomib + Crizotinib; first compound 0.006325 µM): 0.25
- relative viability (Bortezomib + Crizotinib; first compound 0.02 µM): 0.177
- relative viability (Bortezomib + Pemetrexed; first compound 0.0002 µM): 0.914
- relative viability (Bortezomib + Pemetrexed; first compound 0.000632 µM): 0.997
- relative viability (Bortezomib + Pemetrexed; first compound 0.002 µM): 0.878
- relative viability (Bortezomib + Pemetrexed; first compound 0.006325 µM): 0.85
- relative viability (Bortezomib + Pemetrexed; first compound 0.02 µM): 0.16
- relative viability (Obatoclax + Palbociclib; first compound 0.01 µM): 0.319
- relative viability (Obatoclax + Palbociclib; first compound 0.03162 µM): 0.352
- relative viability (Obatoclax + Palbociclib; first compound 0.3162 µM): 0.178
- relative viability (Obatoclax + Palbociclib; first compound 1 µM): 0.184
